From US11040056B2, “Benzimidazoles that enhance the activity of oligonucleotides” (The University of North Carolina at Chapel Hill, priority 2018, dated 2021)

Legend:
[1] = tested on: P-glycoprotein (Pgp) expression in NIH-3T3-MDR cells; experiment: ASO mediated inhibition of MDR1 gene expression (Pgp by flow cytometry); type: cell-based, mouse; details: 100 nM anti-MDR1 ASO 16 h; 10 μM UNC2383 2 h where used; 48 h
Experimental: FIG. 4. Effects with ASOs. Reduction of Pgp expression. NIH 3T3-MDR cells were incubated with 100 nM anti-MDR1 ASO or a mismatched (MM) control for 16 h in DMEM+1% FBS. Cells were rinsed and then treated with 10 μM UNC2383 for 2 h. The compound was removed, and the cells further incubated for 48 h. Expression of Pgp on the cell surface was determined by treating cells with Alexa 488 labeled anti-Pgp monoclonal antibody and binding quantitated by flow cytometry (PE(A)=units of fluorescence intensity). Treatment with ASO complexed with Lipofectamine 2000 (L2K) was a positive control. Y axis, cell counts; X axis, Alexa 488 fluorescence. […] Means±SE, N=3.
We also tested UNC2383 for its ability to affect ASOs rather than SSOs. The ASO was designed to inhibit expression of the MDR1 gene and its product the P-glycoprotein multidrug transporter. […] Cell surface expression of P-glycoprotein was monitored using an Alexa 488 labeled anti-Pgp monoclonal antibody and flow cytometry. […]
SSO-mediated luciferase induction assays were conducted as previously described. (18) In short, HeLaLuc705 cells in 24 well culture plates were preincubated with SSO623 followed by brief treatment with the small molecule; at intervals thereafter, luciferase activity and protein content were determined. […] Cytotoxicity of 2383 was monitored using the Alamar Blue assay. […]

[2] = tested on: HeLa Luc 705 cells; experiment: Confocal microscopy of endomembrane permeability and oligonucleotide localization; type: cell-based; details: 2 h
Experimental: FIG. 5A-5B. Effect on endomembrane permeability. FIG. 5A: HeLa Luc 705 cells (50 000) were seeded into glass-bottom dishes and incubated at 37° C. for attachment. Alexa 488-Dextran 10K (200 μg/mL) or TAMRA SSO 623 (2.5 μM) were added into the medium and the cells incubated for 24 h. Cells were washed with PBS and then placed back in the medium and treated with UNC2383 for 2 h or maintained as controls. Cells were rinsed after drug treatment. Live cells were imaged with an Olympus FV1200 or a Zeiss LSM710 confocal microscope. For the studies with Alexa 488 Dextran, the controls are shown in image panels a and b while cells treated with 10 μM UNC2383 are in image panels c and d. […] Images e and f are composites of TAMRA, Hoechst, and DIC images, and the pink coloration in f indicates overlap of the TAMRA and Hoechst fluorescence. Images are typical of three independent assays. Intensity settings were identical for fluorescence images with or without UNC2383. FIG. 5B quantitates the TAMRA fluorescence in the nucleus for controls versus cells treated with 5 μM UNC2383, as measured using Fiji software, with Hoechst stain used to delineate the nucleus (N=12).
FIG. 6. Confocal images of compound effects on nuclear distribution of a fluorescent oligonucleotide. […] Nuclei lacking fluorescence are indicated with gray arrows. […]
FIG. 7A-7B. […] Composite images showing TAMRA fluorescence, GFP, and DIC are provided. […]
Effects of UNC2383 on endosome stability were monitored in cell culture models as previously described. […] Live cells were imaged by fluorescence confocal microscopy with or without treatment with UNC2383 or its analogs. […] Co-localization of TAMRA labeled SSO 623 with marker proteins was quantitated using Fiji (ImageJ) software and expressed as a Manders' Correlation Coefficient. […] EGFP protein expression was monitored by immunostaining with an anti-EGFP antibody (Abcam) using techniques previously described. (3) EGFP immunostaining was analyzed using a Leica SP2 confocal microscope with acquisition parameters constant throughout the study: images were processed with Adobe Photoshop software. […]

Structure (SMILES): O=C(Nc1nc2ccccc2n1CCN1CCCC1)c1cc2cc(Cl)ccc2o1 [UNC2383]
- Pgp expression on the cell surface [1]: substantial reduction
- relocalization of TAMRA labeled SSO to the nucleus ([2]; 5 μM): partial but substantial relocalization
- colocalization of TAMRA-SSO with late endosomes and lysosomes (Manders' Correlation Coefficient) ([2]; 5 μM, GFP-Rab7, GFP-LAMP1): substantially reduced
- release of Alexa 488-Dextran from vesicular entrapment ([2]; 10 μM): partial release
